According to patent US11661427B2, “Tetrazole derivatives as TRPA1 inhibitors” (Boehringer Ingelheim International GmbH, priority 2020, dated 2023):

Legend:
[1] = Assay C: Hepatocyte clearance; format: in vitro ADME, human; conditions: hepatocyte suspension, 5% species serum, 1 μM test compound, six hours
Protocol: Evaluation of Hepatocyte Clearance Assay C: Hepatocyte Clearance
The metabolic degradation of the test compound is assayed in a hepatocyte suspension. Hepatocytes (cryopreserved) are incubated in Dulbecco's modified eagle medium (supplemented with 3.5 μg glucagon/500 mL, 2.5 mg insulin/500 mL and 3.75 mg/500 mL hydrocortison) containing 5% species serum.
Following a 30 min preincubation in an incubator (37° C., 10% CO2) 5 μl of test compound solution (80 μM; from 2 mM in DMSO stock solution diluted 1:25 with medium) are added into 395 μl hepatocyte suspension (cell density in the range 0.25-5 Mio cells/mL depending on the species, typically 1 Mio cells/mL; final concentration of test compound 1 μM, final DMSO concentration 0.05%).
The cells are incubated for six hours (incubator, orbital shaker) and samples (25 μl) are taken at 0, 0.5, 1, 2, 4 and 6 hours. Samples are transferred into acetonitrile and pelleted by centrifugation (5 min). The supernatant is transferred to a new 96-deepwell plate, evaporated under nitrogen and resuspended.
Decline of parent compound is analyzed by HPLC-MS/MS
CLint is calculated as follows CL_[…]=Dose/AUC=(C0/CD)/(AUD+clast/k)×1000/60. C0: initial concentration in the incubation [μM], CD: cell density of vital cells [10e6 cells/mL], AUD: area under the data [μM×h], clast: concentration of last data point [μM], k: slope of the regression line for parent decline [h−1].
The calculated in vitro hepatic intrinsic clearance can be scaled up to the intrinsic in vivo hepatic Clearance and used to predict hepatic in vivo blood clearance (CL) by the use of a liver model (well stirred model).

[2] = Assay B: Microsomal clearance; format: in vitro ADME; conditions: pooled liver microsomes, 1 μM test compound, 37° C.; Tables 5 and 6 of the same assay are headed human LM [% Qh]
Protocol: Evaluation of Microsomal Clearance Assay B: Microsomal Clearance:
The metabolic degradation of the test compound is assayed at 37° C. with pooled liver microsomes. The final incubation volume of 100 μl per time point contains TRIS buffer pH 7.6 at RT (0.1 M), magnesium chloride (5 mM), microsomal protein (1 mg/ml) and the test compound at a final concentration of 1 μM.
Following a short preincubation period at 37° C., the reactions are initiated by addition of beta-nicotinamide adenine dinucleotide phosphate, reduced form (NADPH, 1 mM) and terminated by transferring an aliquot into solvent after different time points (0, 5, 15, 30, 60 min). Additionally, the NADPH-independent degradation is monitored in incubations without NADPH, terminated at the last time point. The [%] remaining test compound after NADPH independent incubation is reflected by the parameter c(control) (metabolic stability). The quenched incubations are pelleted by centrifugation (10000 g, 5 min).
An aliquot of the supernatant is assayed by LC-MS/MS for the amount of parent compound. The half-life (t1/2 INVITRO) is determined by the slope of the semilogarithmic plot of the concentration-time profile.

human TRPA1 ion channel = human TRPA1 ion channel (Homo sapiens (Human), UniProt O75762); assay: Assay A: TRPA1 assay (FLIPR calcium assay, AITC agonism, HEK293 cells over-expressing human TRPA1); format: cell-based; conditions: AITC 10 μM, FLIPRtetra, AUC after AITC addition, read-out: hTRPA1 IC50
Protocol: A human HEK293 cell line over-expressing the human TRPA1 ion channel (Perkin Elmer, Product No. AX-004-PCL) is used as a test system for compound efficacy and potency. Compound activity is determined by measuring the effect of compounds on intracellular calcium concentration induced by AITC (Allylisothiocyanat) agonism in a FLIPRtetra system (Molecular Devices).
Cells are grown in culture medium (MEM/EBSS medium with 10% FCS and 0.4 mg/ML Geneticin). […] For sub-culturing cells are detached from flasks by Versene. At the day before the assay, cells are detached, washed twice with medium (MEM/EBSS medium with 10% FCS) and 20000 cells in 20 μl/well are seeded to Poly D-Lysin biocoated 384-well plates (black, clear bottom, Cat. 356697) from Corning. Plates are incubated for 24 hours at 37° C./5% CO2 before use in the assay.
The test compounds are dissolved in 100% DMSO at a concentration of 10 mM and in a first step diluted in DMSO to a concentration of 5 mM, followed by serial dilution steps in 100% DMSO. Dilution factor and number of dilution steps may vary according to needs. Typically 8 different concentrations by 1:5 dilutions are prepared, further intermediate dilutions (1:20) of the substances are carried out with HBSS/HEPES buffer (1×HEPES, Cat. 14065 from Gibco, 20 mM HEPES, Cat. 83264 from SIGMA, 0.1% BSA Cat. 11926 from Invitrogen, pH 7.4
At the assay day cells are washed 3× with assay puffer, 20 μL buffer remaining in the wells after washing. 10 μL Ca6 kit (Cat. R8191 MolecularDevices) loading buffer in HBSS/HEPES is added to the cells and the plates are incubated with lid for 120 minutes at 37°/5% CO2. 10 μL of compound or controls in HBSS/HEPES buffer/5% DMSO from the intermediate dilution plate are carefully added to the wells. […] Finally 10 μL of the agonist AITC 50 μM dissolved in HBSS/HEPES buffer/0.05% DMSO (final concentration 10 μM) is added to the wells followed by an additional read on the FLIPRtetra device for 10 minutes. The area under the signal curve (AUC) after AITC addition is used for IC50/% inhibition calculations
Each assay microtiter plate contains wells with vehicle (1% DMSO) controls instead of compound as controls for AITC induced luminescence (100% CTL; high controls) and wells with vehicle controls without AITC as controls for non-specific changes in luminescence (0% CTL; low controls).
The analysis of the data is performed by the calculation of the area under signal curve of the individual wells. Based on this values the % value for the measurement of each substance concentration is calculated (AUC(sample)−AUC(low))*100/(AUC(high)−AUC(low)) using MegaLab software (in house development). The IC50 values are calculated from the % control values using MegaLab software. Calculation: [y=(a−d)/(1+(x/c)^B)+d], a=low value, d=high value; x=conc M; c=IC50 M; b=hill; y=% ctrl

Sequence of human TRPA1 ion channel (O75762 whole entry): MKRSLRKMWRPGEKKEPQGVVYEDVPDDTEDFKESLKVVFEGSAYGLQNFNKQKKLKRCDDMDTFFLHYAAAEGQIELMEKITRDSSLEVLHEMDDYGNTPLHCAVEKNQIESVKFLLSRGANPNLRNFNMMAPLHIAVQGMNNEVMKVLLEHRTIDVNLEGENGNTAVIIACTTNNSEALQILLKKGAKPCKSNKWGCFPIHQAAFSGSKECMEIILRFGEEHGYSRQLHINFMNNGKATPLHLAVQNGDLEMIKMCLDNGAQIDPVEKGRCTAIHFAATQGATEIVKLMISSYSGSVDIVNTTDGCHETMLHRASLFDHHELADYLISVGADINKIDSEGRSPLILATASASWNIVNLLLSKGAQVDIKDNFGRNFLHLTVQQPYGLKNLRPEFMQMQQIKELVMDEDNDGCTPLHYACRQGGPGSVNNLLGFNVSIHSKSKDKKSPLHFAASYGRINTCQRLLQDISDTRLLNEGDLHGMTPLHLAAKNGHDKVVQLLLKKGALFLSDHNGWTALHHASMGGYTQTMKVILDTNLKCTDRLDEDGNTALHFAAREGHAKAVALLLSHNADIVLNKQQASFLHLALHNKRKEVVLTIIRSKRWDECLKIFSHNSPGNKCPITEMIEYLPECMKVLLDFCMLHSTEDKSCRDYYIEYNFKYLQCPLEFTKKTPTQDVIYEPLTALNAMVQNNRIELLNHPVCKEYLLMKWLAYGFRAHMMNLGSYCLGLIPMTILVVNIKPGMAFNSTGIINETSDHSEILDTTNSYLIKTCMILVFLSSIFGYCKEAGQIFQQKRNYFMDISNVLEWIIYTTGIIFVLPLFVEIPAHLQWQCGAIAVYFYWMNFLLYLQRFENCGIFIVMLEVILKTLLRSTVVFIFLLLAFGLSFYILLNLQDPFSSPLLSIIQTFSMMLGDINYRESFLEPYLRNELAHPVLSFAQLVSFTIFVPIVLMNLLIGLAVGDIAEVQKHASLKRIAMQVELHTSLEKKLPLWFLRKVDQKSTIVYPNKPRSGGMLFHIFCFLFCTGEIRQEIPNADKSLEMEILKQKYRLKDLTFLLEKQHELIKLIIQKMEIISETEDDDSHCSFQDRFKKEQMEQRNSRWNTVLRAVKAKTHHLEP

| Structure (SMILES) | human Hepatocytes [1] [% Qh] | Assay B result (column head not printed in Table 4) [2] [%] | IC50 (human TRPA1 ion channel) [nM] |
| --- | --- | --- | --- |
| Cc1ccc([C@@H](O)Cn2nnc(Cn3cnc4oc(C)c(C(N)=O)c4c3=O)n2)cc1 [Example 1, 3-({2-[(2R)-2-hydroxy-2-(4-methylphenyl)ethyl]-2H-1,2,3,4-tetrazol-5-yl}methyl)-6-methyl-4-oxo-3H,4H-furo[2,3-d]pyrimidine-5-carboxamide] | 4 | < 23 | 24 |
| Cc1c(C(N)=O)oc2ncn(Cc3nnn(C[C@H](O)c4cc5ccccc5s4)n3)c(=O)c12 [Example 2] | 23 | < 23 | 10 |
| Cc1c(C(N)=O)oc2ncn(Cc3nnn(C[C@H](O)c4ccc(Cl)s4)n3)c(=O)c12 [Example 3] | 5 | < 23 | 10 |
| Cc1oc2ncn(Cc3nnn(C[C@H](O)c4cc5ccc(F)cc5s4)n3)c(=O)c2c1C(N)=O [Example 4] | 30 | < 23 | 10 |
| Cc1oc2ncn(Cc3nnn(C[C@H](O)c4cc5ccccc5s4)n3)c(=O)c2c1C(N)=O [Example 5] | 23 | < 23 | 11 |
| Cc1oc2ncn(Cc3nnn(C[C@H](O)c4ccc(Cl)s4)n3)c(=O)c2c1C(N)=O [Example 7] | 15 | < 23 | 20 |
| Cc1ccc([C@@H](O)Cn2nnc(Cn3cnc4oc(C(N)=O)c(C)c4c3=O)n2)cc1 [Example 8] | 14 | < 23 | 21 |
| Cc1oc2ncn(Cc3nnn(C[C@H](O)c4ccc(Cl)cc4)n3)c(=O)c2c1C(N)=O [Example 9] | 16 | < 23 | 23 |
| Cc1c(C(N)=O)oc2ncn(Cc3nnn(C[C@H](O)c4ccc(Cl)cc4)n3)c(=O)c12 [Example 10] | <4 | < 23 | 23 |
| Cc1oc2ncn(Cc3nnn(C[C@H](O)c4ccc(Br)cc4)n3)c(=O)c2c1C(N)=O [Example 12] | 16 | < 23 | 29 |

Now from value to compound:

| human Hepatocytes [1] [% Qh] | Assay B result (column head not printed in Table 4) [2] [%] | IC50 (human TRPA1 ion channel) [nM] | Structure (SMILES) |
| --- | --- | --- | --- |
| 24 | < 23 | 13 | Cc1c(C(N)=O)oc2ncn(Cc3nnn(C[C@H](O)c4cc5cc(Cl)ccc5o4)n3)c(=O)c12 [Example 6] |
| 8 | < 23 | 26 | Cc1oc2ncn(Cc3nnn(C[C@H](O)c4cc5ccccc5o4)n3)c(=O)c2c1C(N)=O [Example 11] |
| 22 | 26 | 49 | Cc1oc2ncn(Cc3nnn(C[C@H](O)c4cc5cccc(F)c5o4)n3)c(=O)c2c1C(N)=O [Example 13] |
| 42 | 42 | 12 | Cc1oc2ncn(Cc3nnn(C[C@H](O)c4cc5cc(Cl)ccc5o4)n3)c(=O)c2c1C(N)=O [Example 14] |
| 21 | < 23 | 18 | Cc1oc2ncn(Cc3nnn(C[C@H](O)c4cc5cc(F)ccc5o4)n3)c(=O)c2c1C(N)=O [Example 15] |
